Laboratory results as given in PMC9616851, “Structural mechanism of SGLT1 inhibitors” (Nature Communications, 2022).

Biological target: T1, hSGLT1 (Homo sapiens, UniProt P13866)
T1 construct: gene SLC5A1; hSGLT1GFP-MAP17nb: GFP fused between Q581 and E582 of hSGLT1; anti-GFP nanobody fused after E57 of MAP17 (1-57); in nanodisc; with MAP17
T1 sequence (P13866 1-581): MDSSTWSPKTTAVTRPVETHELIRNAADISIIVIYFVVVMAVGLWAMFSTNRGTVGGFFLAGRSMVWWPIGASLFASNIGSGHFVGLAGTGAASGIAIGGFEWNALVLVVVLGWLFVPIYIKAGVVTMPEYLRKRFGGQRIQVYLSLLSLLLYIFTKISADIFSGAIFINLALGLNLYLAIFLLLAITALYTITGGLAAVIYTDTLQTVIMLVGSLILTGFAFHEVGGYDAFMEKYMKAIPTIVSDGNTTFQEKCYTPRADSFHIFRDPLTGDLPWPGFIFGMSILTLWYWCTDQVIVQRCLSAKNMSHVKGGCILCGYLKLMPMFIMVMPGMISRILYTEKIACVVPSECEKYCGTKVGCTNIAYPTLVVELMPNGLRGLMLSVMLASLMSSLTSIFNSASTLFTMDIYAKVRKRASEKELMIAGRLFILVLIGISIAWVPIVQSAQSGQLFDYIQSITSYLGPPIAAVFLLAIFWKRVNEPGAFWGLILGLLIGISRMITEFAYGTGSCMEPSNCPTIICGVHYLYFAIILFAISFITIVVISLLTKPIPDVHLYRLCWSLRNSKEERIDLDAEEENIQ
T1 sequence (P13866 582-664): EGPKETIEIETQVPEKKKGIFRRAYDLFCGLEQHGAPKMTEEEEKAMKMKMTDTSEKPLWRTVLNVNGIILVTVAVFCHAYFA
T1 sequence (Q13113 1-57 partner): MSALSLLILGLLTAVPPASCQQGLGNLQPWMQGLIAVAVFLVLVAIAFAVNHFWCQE
Test: cryo-EM structure at […] Å; 1-NBD-glucose uptake inhibition in cells (IC50 […] for this construct, […] for non-tagged hSGLT1)
Type: cell-based

In the case of `CS[C@H]1O[C@@H](c2ccc(C)c(Cc3ccc(CCCC(=O)NC(C)(C)C(=O)NCCN(C)C)cc3)c2)[C@H](O)[C@@H](O)[C@@H]1O` [LX2761], the IC50 is reported as 2.3 nM.
